{"source": "patent US11225474B2", "about": "“Crystalline salt forms of 3-(1,2,4-triazolo[4,3-a]pyridine-3-ylethynyl)-4-methyl-N-(4-((4-methylpiperazin-1-yl)methyl)-3-trifluoromethylphenyl)benzamide for medical application” (priority 2016, dated 2022)", "key": {"[1]": {"test": "MTD at a single administration to dogs", "conditions": "dog, in vivo", "description": "The MTD of the drug at a single administration to dogs was 45 mg/kg (38 mg/kg calculated as a free base)."}, "[2]": {"test": "Stability of polymorph modifications, suspending in acetone for 6 days", "format": "physicochemical", "description": "Crystallinity of all samples obtained was studied using the method of X-ray powder diffraction (to study the crystallinity structure). Diffraction patterns were obtained at a temperature of 25° C. […] Survey step 0.02° 2θ, angle range 3-45° 2θ. Diffraction patterns obtained were studied in detail using X'Pert HighScore Plus software package."}, "SKOV-3": {"system": "SKOV-3", "test": "Cytotoxicity, ovarian cancer line", "format": "cell-based, human"}, "physchem": {"test": "physchem", "conditions": "deionized water, thermodynamic from solid, Equilibrium solubility, HPLC analysis"}, "[3]": {"system": "Sca1+ marrow cells, expressing p185-T315I^BCR/ABL", "test": "BCR/ABL-induced chronic myelogenous leukemia model", "format": "in vivo, C57BL/6N line mice", "conditions": "for Average life: oral, control 55.0 ± 6.3"}, "Bcr-Abl (F317I)": {"biological_target": "Bcr-Abl (F317I) (Homo sapiens, UniProt P00519, F317I, form not given)", "test": "Bcr-Abl tyrosine kinase enzyme activity"}, "CYP2B6": {"biological_target": "CYP2B6 (Homo sapiens, UniProt P20813)", "sequence (P20813 whole entry)": "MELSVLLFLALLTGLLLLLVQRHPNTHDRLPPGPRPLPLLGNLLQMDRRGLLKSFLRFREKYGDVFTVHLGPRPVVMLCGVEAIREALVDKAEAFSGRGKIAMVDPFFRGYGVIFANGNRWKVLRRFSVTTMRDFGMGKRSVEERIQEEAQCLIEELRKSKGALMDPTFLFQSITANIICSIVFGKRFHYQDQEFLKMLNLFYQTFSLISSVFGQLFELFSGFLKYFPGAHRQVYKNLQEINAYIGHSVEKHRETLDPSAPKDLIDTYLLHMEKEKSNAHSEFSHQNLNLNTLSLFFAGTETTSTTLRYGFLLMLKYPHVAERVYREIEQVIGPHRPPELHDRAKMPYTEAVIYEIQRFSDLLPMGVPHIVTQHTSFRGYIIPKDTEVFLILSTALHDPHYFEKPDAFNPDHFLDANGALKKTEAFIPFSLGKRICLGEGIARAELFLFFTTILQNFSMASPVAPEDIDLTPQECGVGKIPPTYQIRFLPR", "test": "Metabolism study using cytochrome enzyme drugs", "format": "in vitro ADME", "conditions": "2B6"}, "SR": {"system": "SR", "test": "Cytotoxicity, lymphoma line", "format": "cell-based, human"}, "EPHA2": {"biological_target": "EPHA2 (Homo sapiens, UniProt P29317)", "sequence (P29317 24-976)": "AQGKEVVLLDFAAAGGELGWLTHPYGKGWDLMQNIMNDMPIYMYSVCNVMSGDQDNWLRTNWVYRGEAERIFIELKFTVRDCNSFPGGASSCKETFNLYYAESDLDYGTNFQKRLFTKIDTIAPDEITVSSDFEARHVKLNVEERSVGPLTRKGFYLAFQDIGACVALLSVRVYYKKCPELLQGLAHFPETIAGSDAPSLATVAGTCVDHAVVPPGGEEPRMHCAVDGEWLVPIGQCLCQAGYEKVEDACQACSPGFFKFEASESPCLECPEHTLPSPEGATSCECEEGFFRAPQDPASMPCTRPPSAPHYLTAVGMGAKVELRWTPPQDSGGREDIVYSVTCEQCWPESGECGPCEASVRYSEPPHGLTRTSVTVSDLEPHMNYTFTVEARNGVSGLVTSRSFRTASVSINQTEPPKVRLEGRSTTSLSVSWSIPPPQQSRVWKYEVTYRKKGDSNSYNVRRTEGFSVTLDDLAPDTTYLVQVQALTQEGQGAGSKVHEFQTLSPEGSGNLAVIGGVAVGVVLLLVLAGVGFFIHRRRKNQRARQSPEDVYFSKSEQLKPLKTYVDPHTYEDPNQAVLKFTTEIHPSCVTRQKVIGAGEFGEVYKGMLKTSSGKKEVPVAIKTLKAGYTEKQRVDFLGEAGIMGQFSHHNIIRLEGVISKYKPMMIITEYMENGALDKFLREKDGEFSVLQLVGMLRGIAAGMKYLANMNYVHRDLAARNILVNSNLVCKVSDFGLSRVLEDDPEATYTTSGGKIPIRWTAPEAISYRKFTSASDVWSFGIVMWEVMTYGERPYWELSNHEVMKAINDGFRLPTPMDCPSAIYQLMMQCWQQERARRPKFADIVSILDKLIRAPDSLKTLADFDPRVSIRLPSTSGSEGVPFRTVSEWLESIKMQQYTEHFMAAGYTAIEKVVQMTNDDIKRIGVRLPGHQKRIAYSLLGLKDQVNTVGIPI", "test": "Human kinase panel at 100 nM", "format": "biochemical"}, "[4]": {"test": "Dissolution kinetics (USP Apparatus 1 Basket Method)", "format": "physicochemical", "conditions": "distilled water, 37±1° C., 118 mg salt"}, "CYP2C19": {"biological_target": "CYP2C19 (Homo sapiens, UniProt P33261)", "sequence (P33261 whole entry)": "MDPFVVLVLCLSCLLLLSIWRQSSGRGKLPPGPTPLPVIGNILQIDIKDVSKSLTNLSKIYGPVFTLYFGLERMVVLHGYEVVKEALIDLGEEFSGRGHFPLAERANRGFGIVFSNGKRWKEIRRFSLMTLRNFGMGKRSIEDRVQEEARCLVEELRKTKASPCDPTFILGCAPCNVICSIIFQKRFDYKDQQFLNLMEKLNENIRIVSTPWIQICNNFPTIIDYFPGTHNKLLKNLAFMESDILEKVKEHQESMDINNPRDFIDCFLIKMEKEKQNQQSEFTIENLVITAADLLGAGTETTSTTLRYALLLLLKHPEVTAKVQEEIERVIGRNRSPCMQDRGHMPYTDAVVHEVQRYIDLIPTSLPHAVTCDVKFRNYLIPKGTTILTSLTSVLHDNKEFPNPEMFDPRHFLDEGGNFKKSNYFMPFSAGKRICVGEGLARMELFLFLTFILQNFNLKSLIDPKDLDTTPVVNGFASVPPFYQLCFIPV", "test": "Metabolism study using cytochrome enzyme drugs", "format": "in vitro ADME", "conditions": "2C19"}, "Bcr-Abl (Q252H)": {"biological_target": "Bcr-Abl (Q252H) (Homo sapiens, UniProt P00519, Q252H, form not given)", "test": "Bcr-Abl tyrosine kinase enzyme activity"}, "KCL-22": {"system": "KCL-22", "test": "Cytotoxicity, Ph+ CML model cell line", "format": "cell-based", "conditions": "Homo sapiens, read-out: IC50 (toxicity)"}, "[5]": {"test": "Hygroscopicity by gravimetric moisture absorption", "format": "physicochemical", "conditions": "relative air humidity of 90%", "text": "Samples were also studied using the following methods: polarization microscopy (Leica DMRB Polarized Microscope, resolution of 1600×1200)—to confirm crystallinity, ion chromatography—to confirm anion and cation stoichiometric proportion, differential scanning calorimetry (DSC) and thermogravimetric analysis (TGA)—to confirm composition and study of temperature stability of samples; ^1H NMR (500 MHz Bruker AVANCE 500.13 MHz, solvent DMSO-d6)—to confirm structure, assess purity and content of organic solvents; gravimetric moisture absorption—to assess hygroscopicity. DSC was carried out using Mettler 822e DSC apparatus. The measuring system was calibrated according to ISO 11357-1 standard based on standard substances phase changes (C6H12; Hg; benzoic acid; Ga; KNO3; In; Sn; Bi; CsCl; purity grade 99.99%). Temperature calibration regular error (determined based on In) is 0.1°. Samples were tested in standard aluminum cells in the artificial air flow at a temperature range of 30-300° C. with heating speed of 10°/min. TG measurements were taken using Mettler 851e SDTA/TGA TG analyzer. The apparatus was calibrated using standard substances melting points (Ag; Al; Bi; In; Sn; purity grade of 99.99%). Weighing error is NMT 0.1% (determined using CaC2O4·2H2O standard). The test was carried out in a standard open aluminum container in the artificial air flow at a temperature range of 30-150° C. with heating speed of 10°/min. To avoid dehydration, the material was not exposed to mechanical treatment before taking measurements."}, "BaF3/BCR-ABL": {"system": "BaF3/BCR-ABL", "test": "Toxicity to transduced BaF3 model tumor cell line", "format": "cell-based, murine", "conditions": "Mus musculus"}}, "data": [{"compound": "CS(=O)(=O)O.Cc1ccc(C(=O)Nc2ccc(CN3CCN(C)CC3)c(C(F)(F)F)c2)cc1C#Cc1nnc2ccccn12", "note": "[methanesulfonic acid salt, 3-(1,2,4-triazolo[4,3-a]pyridine-3-ylethynyl)-4-methyl-N-(4-((4-methylpiperazin-1-yl)methyl)-3-trifluoromethylphenyl)benzamide mono methanesulfonic acid salt]", "values": [{"measurement": "MTD", "setting": "[1]; calculated as a free base", "result": 38, "unit": "mg/kg"}, {"measurement": "MTD", "setting": "[1]; dose of the salt", "result": 45, "unit": "mg/kg"}, {"measurement": "crystalline structure after suspending in acetone", "setting": "[2]; acetone, 6 days", "result": "remained unchanged"}, {"measurement": "Crystallinity in 6 days", "setting": "[2]; suspending in acetone for 6 days, room temperature", "result": "Cryst."}, {"measurement": "cytotoxicity", "setting": "SKOV-3", "result": "showed cytotoxicity"}, {"measurement": "solubility thermodynamic", "setting": "physchem", "result": "> 100", "unit": "mg/mL"}, {"measurement": "therapeutic effect compared with the free base", "setting": "[3]; 40 mg/kg (34 mg/kg as free base)", "result": "same therapeutic effect as administration of 50 mg/kg of a free base"}, {"measurement": "increase of animals' lives compared to the control group", "setting": "[3]; 59 mg/kg (50 mg/kg as free base)", "result": "almost two-fold increase"}, {"measurement": "Average life", "setting": "[3]; 10 mg/kg salt (8.5 as free base)", "result": "65.5 ± 6.7", "unit": "days"}, {"measurement": "Average life", "setting": "[3]; 25 mg/kg salt (21 as free base)", "result": "73.9 ± 7.1", "unit": "days"}, {"measurement": "Average life", "setting": "[3]; 40 mg/kg salt (34 as free base)", "result": "90.3 ± 6.9", "unit": "days"}, {"measurement": "Average life", "setting": "[3]; 59 mg/kg salt (50 as free base)", "result": "104.5 ± 5.2", "unit": "days"}, {"measurement": "IC50", "setting": "Bcr-Abl (F317I)", "result": 2, "unit": "nM"}, {"measurement": "participation of the isoform in metabolism", "setting": "CYP2B6", "result": "does not involve"}, {"measurement": "cytotoxicity", "setting": "SR", "result": "showed cytotoxicity"}, {"measurement": "inhibition at 0.1 µM", "setting": "EPHA2", "result": "> 50", "unit": "%"}, {"measurement": "time for 95% to transfer to the solution", "setting": "[4]", "result": "less than one minute"}, {"measurement": "time to full dissolution", "setting": "[4]", "result": "less than 4 minutes"}, {"measurement": "participation of the isoform in metabolism", "setting": "CYP2C19", "result": "does not involve"}, {"measurement": "IC50", "setting": "Bcr-Abl (Q252H)", "result": 12, "unit": "nM"}, {"measurement": "IC50", "setting": "KCL-22", "result": 9, "unit": "nM"}, {"measurement": "water absorbed (hygroscopicity)", "setting": "[5]", "result": "less than two mass percent of water"}, {"measurement": "IC50", "setting": "BaF3/BCR-ABL", "result": 5, "unit": "nM"}]}]}
